Measured values as given in publication PMC12578387, “TET3 is a common epigenetic immunomodulator of pathogenic macrophages” (The Journal of Clinical Investigation, 2025).

Assays:
[1] = molecular target: TET3 (Tet methylcytosine dioxygenase 3) (Homo sapiens, UniProt O43151); assay: AlphaScreen of Bc-dependent TET3-VHL ternary complex formation; supported by co-IP and degradation of TET3 in human MDMs; type: binding
[2] = molecular target: TET1 (Homo sapiens, UniProt Q8NFU7); assay: AlphaScreen of Bc-dependent TET1-VHL ternary complex formation (weaker than TET3; no TET1 degradation in cells); type: binding
TET1, sequence (Q8NFU7 1418-2136 limits assumed): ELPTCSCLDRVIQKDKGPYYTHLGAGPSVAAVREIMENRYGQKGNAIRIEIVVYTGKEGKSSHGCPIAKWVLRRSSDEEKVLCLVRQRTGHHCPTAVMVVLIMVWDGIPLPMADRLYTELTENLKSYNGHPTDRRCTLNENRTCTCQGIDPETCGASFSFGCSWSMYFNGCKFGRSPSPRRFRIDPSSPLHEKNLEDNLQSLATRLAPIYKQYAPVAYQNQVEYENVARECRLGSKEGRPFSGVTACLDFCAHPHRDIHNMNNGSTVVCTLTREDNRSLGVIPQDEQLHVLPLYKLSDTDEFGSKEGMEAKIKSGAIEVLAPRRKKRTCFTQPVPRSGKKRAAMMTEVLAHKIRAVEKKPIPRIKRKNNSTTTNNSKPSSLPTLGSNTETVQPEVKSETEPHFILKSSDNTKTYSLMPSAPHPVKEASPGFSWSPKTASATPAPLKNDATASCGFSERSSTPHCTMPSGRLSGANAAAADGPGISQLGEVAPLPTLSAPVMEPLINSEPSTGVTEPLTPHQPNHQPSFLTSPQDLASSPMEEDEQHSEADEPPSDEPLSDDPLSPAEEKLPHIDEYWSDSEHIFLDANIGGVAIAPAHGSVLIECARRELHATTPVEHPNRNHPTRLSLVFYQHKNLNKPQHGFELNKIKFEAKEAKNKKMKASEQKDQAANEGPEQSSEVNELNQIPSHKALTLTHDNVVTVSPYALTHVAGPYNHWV
TET1, sequence (P40337 whole entry partner): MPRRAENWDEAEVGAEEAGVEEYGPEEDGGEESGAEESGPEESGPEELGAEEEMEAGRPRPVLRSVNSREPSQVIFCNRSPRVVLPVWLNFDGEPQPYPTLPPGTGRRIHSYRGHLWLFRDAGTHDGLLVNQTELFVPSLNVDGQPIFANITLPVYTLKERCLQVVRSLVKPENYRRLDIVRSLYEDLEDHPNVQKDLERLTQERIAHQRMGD

TET3 (Tet methylcytosine dioxygenase 3), sequence (O43151 850-1795 limits assumed): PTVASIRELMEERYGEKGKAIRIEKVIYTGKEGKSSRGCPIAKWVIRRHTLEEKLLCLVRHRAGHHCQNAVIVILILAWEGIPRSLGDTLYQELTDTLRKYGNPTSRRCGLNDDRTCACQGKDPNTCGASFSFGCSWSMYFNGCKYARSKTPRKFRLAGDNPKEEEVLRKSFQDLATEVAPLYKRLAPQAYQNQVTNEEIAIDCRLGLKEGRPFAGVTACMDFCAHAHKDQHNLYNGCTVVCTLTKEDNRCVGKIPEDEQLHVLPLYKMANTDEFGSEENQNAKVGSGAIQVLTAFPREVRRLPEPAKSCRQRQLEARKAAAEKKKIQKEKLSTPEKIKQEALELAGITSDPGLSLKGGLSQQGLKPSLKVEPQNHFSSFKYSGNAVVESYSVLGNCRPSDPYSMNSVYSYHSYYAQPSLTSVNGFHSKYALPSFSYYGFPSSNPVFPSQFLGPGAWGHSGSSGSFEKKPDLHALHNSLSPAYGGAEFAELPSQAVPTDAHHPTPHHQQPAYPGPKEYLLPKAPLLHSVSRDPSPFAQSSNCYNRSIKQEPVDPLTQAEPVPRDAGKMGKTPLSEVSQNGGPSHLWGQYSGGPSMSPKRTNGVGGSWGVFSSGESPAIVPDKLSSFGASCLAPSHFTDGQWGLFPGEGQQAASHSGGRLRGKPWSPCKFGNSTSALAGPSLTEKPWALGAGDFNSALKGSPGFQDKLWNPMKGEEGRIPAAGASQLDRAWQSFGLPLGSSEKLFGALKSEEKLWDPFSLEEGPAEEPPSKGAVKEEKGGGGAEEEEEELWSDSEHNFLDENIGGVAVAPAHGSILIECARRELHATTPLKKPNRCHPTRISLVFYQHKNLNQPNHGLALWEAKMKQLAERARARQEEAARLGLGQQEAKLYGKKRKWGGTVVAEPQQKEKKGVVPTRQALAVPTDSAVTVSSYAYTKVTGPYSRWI
TET3 (Tet methylcytosine dioxygenase 3), sequence (P40337 whole entry partner): as the sequence (P40337 whole entry partner) above

EC50 [1]: 0.05 mM | EC50 [2]: 8.51 mM
Compound: Nc1nc(=O)n(-c2cccc(-c3ccccc3)c2)cc1Cl [Bc, Bobcat339]
